Source: ChEMBL document CHEMBL4000189, “Novel reversible methionine aminopeptidase-2 (MetAP-2) inhibitors based on purine and related bicyclic templates” (Bioorg Med Chem Lett, 2017)
In brackets after ≈: the same amount, converted by molar mass.

What was measured:
[1] = Permeability in human Caco2 cells; assay type: ADME, cell-based; conditions: Caco-2, read-out: permeability
[2] = Thermodynamic solubility of the compound; assay type: physicochemical; conditions: read-out: Therm_solubility
[3] = target: Methionine aminopeptidase 2 (Homo sapiens, UniProt P50579); assay: Inhibition of recombinant human N-terminal His tagged MetAP-2 using tripeptide Met-Ala-Ser as substrate preincubated for 15 mins followed by substrate addition measured after 45 mins by L-amino acid oxidase enzyme coupled assay
Chain of Methionine aminopeptidase 2 (P50579 whole entry): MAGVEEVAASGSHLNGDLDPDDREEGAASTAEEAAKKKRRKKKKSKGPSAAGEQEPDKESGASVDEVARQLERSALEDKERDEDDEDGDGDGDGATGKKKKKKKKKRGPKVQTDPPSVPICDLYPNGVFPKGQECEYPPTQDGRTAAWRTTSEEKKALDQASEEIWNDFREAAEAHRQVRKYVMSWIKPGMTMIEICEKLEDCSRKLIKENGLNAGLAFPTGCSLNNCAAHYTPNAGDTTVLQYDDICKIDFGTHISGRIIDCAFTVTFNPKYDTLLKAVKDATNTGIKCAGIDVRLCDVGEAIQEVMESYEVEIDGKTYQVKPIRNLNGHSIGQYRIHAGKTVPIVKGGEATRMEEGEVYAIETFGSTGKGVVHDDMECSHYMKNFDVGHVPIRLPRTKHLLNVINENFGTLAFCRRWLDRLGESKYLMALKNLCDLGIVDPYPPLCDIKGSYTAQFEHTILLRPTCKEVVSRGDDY

| Structure (SMILES) | Papp [1] [×10⁻⁶ cm/s] | solubility thermodynamic [2] [µg/mL] | IC50 [3] [µM] |
| --- | --- | --- | --- |
| c1ccc2c(OC[C@H]3CCCN3c3ccnc4ncnn34)cncc2c1 | 21 | 171 (≈ 494 µM) | – |
| Fc1cccc(OC[C@H]2CCCN2c2ncnc3[nH]ccc23)c1 | – | – | > 50 |
| Clc1ccccc1OC[C@H]1CCCN1c1ncnc2ncccc12 | – | – | > 50 |
